# Measurements reported in ChEMBL document CHEMBL1155520, “Novel 8a-aza-8a-homoerythromycin--4''-(3-substituted-amino)propionates with broad spectrum antibacterial activity” (2010).
# Assays:
# Type in all cases: functional
# Staphylococcus aureus [1] = experiment: Antimicrobial activity against macrolide-sensitive Staphylococcus aureus ATCC 13709
# Streptococcus pneumoniae [2] = experiment: Antimicrobial activity against macrolide-sensitive Streptococcus pneumoniae SPO 30
# Streptococcus pyogenes [3] = experiment: Antimicrobial activity against macrolide-sensitive Streptococcus pyogenes 3665
# Streptococcus pneumoniae [4] = experiment: Antimicrobial activity against macrolide-resistant Streptococcus pneumoniae Ci137
# Streptococcus pyogenes [5] = experiment: Antimicrobial activity against inducible macrolide, lincosamide, streptogramin-resistant Streptococcus pyogenes Finland 11
# Streptococcus pneumoniae [6] = experiment: Antimicrobial activity against inducible macrolide and constitutive lincosamide, streptogramin-resistant Streptococcus pneumoniae 4636
# Haemophilus influenzae = experiment: Antimicrobial activity against Haemophilus influenzae ATCC 49247
# Streptococcus pneumoniae [7] = experiment: Antimicrobial activity against inducible macrolide, lincosamide, streptogramin-resistant Streptococcus pneumoniae 134 GRM
# Streptococcus pneumoniae [8] = experiment: Antimicrobial activity against inducible macrolide and constitutive lincosamide, streptogramin-resistant Streptococcus pneumoniae 58 Spain
# Streptococcus pyogenes [9] = experiment: Antimicrobial activity against inducible macrolide-resistant Streptococcus pyogenes Finland 3
# Streptococcus pyogenes [10] = experiment: Antimicrobial activity against inducible macrolide and constitutive lincosamide, streptogramin-resistant Streptococcus pyogenes 166 GR-micro
# Staphylococcus aureus [11] = experiment: Antimicrobial activity against macrolide-sensitive Staphylococcus aureus PK1
Compound,MIC (Staphylococcus aureus [1]) [µg/mL],MIC (Streptococcus pneumoniae [2]) [µg/mL],MIC (Streptococcus pyogenes [3]) [µg/mL],MIC (Streptococcus pneumoniae [4]) [µg/mL],MIC (Streptococcus pyogenes [5]) [µg/mL],MIC (Streptococcus pneumoniae [6]) [µg/mL],MIC (Haemophilus influenzae) [µg/mL],MIC (Streptococcus pneumoniae [7]) [µg/mL],MIC (Streptococcus pneumoniae [8]) [µg/mL],MIC (Streptococcus pyogenes [9]) [µg/mL],MIC (Streptococcus pyogenes [10]) [µg/mL],MIC (Staphylococcus aureus [11]) [µg/mL]
CC[C@H]1OC(=O)[C@H](C)[C@@H](O[C@H]2C[C@@](C)(OC)[C@@H](OC(=O)CCN3CCN(c4ccc([N+](=O)[O-])cc4)CC3)[C@H](C)O2)[C@H](C)[C@@H](O[C@@H]2O[C@H](C)C[C@H](N(C)C)[C@H]2O)[C@](C)(OC)C[C@@H](C)NC(=O)[C@H](C)[C@@H](O)[C@]1(C)O,2,< 0.13,< 0.13,1,8,8,2,,,,,
CC[C@H]1OC(=O)[C@H](C)[C@@H](O[C@H]2C[C@@](C)(OC)[C@@H](OC(=O)CCNCC(=O)Nc3cnc4ccccc4c3)[C@H](C)O2)[C@H](C)[C@@H](O[C@@H]2O[C@H](C)C[C@H](N(C)C)[C@H]2O)[C@](C)(OC)C[C@@H](C)NC(=O)[C@H](C)[C@@H](O)[C@]1(C)O,2,< 0.13,< 0.13,2,16,> 32,> 32,,,,,
CC[C@H]1OC(=O)[C@H](C)[C@@H](O[C@H]2C[C@@](C)(OC)[C@@H](OC(=O)CCNCC(=O)Nc3cccc4ncccc34)[C@H](C)O2)[C@H](C)[C@@H](O[C@@H]2O[C@H](C)C[C@H](N(C)C)[C@H]2O)[C@](C)(OC)C[C@@H](C)NC(=O)[C@H](C)[C@@H](O)[C@]1(C)O,8,< 0.13,0.25,16,32,> 32,> 32,,,,,
CC[C@H]1OC(=O)[C@H](C)[C@@H](O[C@H]2C[C@@](C)(OC)[C@@H](OC(=O)CCNCC(=O)Nc3ccc4cccnc4c3)[C@H](C)O2)[C@H](C)[C@@H](O[C@@H]2O[C@H](C)C[C@H](N(C)C)[C@H]2O)[C@](C)(OC)C[C@@H](C)NC(=O)[C@H](C)[C@@H](O)[C@]1(C)O,2,< 0.13,< 0.13,4,16,> 32,> 32,,,,,
CC[C@H]1OC(=O)[C@H](C)[C@@H](O[C@H]2C[C@@](C)(OC)[C@@H](OC(=O)CCNCCNc3cncc([N+](=O)[O-])c3)[C@H](C)O2)[C@H](C)[C@@H](O[C@@H]2O[C@H](C)C[C@H](N(C)C)[C@H]2O)[C@](C)(OC)C[C@@H](C)NC(=O)[C@H](C)[C@@H](O)[C@]1(C)O,0.25,< 0.13,< 0.13,0.5,0.25,4,4,,,,,
CC[C@H]1OC(=O)[C@H](C)[C@@H](O[C@H]2C[C@@](C)(OC)[C@@H](OC(=O)CCN3CCN(c4cc5c(cc4F)c(=O)ccn5C4CC4)CC3)[C@H](C)O2)[C@H](C)[C@@H](O[C@@H]2O[C@H](C)C[C@H](N(C)C)[C@H]2O)[C@](C)(O)C[C@@H](C)NC(=O)[C@H](C)[C@@H](O)[C@]1(C)O,1,,,< 0.13,0.5,,8,> 32,> 32,,,
CC[C@H]1OC(=O)[C@H](C)[C@@H](O[C@H]2C[C@@](C)(OC)[C@@H](OC(=O)CCN3CCN(c4cc5c(cc4F)c(=O)ccn5C4CC4)CC3)[C@H](C)O2)[C@H](C)[C@@H](O[C@@H]2O[C@H](C)C[C@H](N(C)C)[C@H]2O)[C@](C)(OC)C[C@@H](C)NC(=O)[C@H](C)[C@@H](O)[C@]1(C)O,1,,,< 0.13,1,,8,> 64,64,< 0.13,> 64,8
CC[C@H]1OC(=O)[C@H](C)[C@@H](O[C@H]2C[C@@](C)(OC)[C@@H](OC(=O)CCN3CCN(c4cc5c(cc4F)c(=O)c(C(=O)O)cn5C4CC4)CC3)[C@H](C)O2)[C@H](C)[C@@H](O[C@@H]2O[C@H](C)C[C@H](N(C)C)[C@H]2O)[C@](C)(OC)C[C@@H](C)NC(=O)[C@H](C)[C@@H](O)[C@]1(C)O,1,,,< 0.13,0.5,,1,8,16,0.5,8,2
CC[C@H]1OC(=O)[C@H](C)[C@@H](O[C@H]2C[C@@](C)(OC)[C@@H](OC(=O)CCNCCNc3cc4c(cc3F)c(=O)c(C(=O)O)cn4C3CC3)[C@H](C)O2)[C@H](C)[C@@H](O[C@@H]2O[C@H](C)C[C@H](N(C)C)[C@H]2O)[C@](C)(O)C[C@@H](C)NC(=O)[C@H](C)[C@@H](O)[C@]1(C)O,0.25,,,< 0.13,< 0.13,,,< 0.13,< 0.13,0.25,0.25,0.5
CC[C@H]1OC(=O)[C@H](C)[C@@H](O[C@H]2C[C@@](C)(OC)[C@@H](OC(=O)CCNCCNc3cc4c(cc3F)c(=O)c(C(=O)O)cn4C3CC3)[C@H](C)O2)[C@H](C)[C@@H](O[C@@H]2O[C@H](C)C[C@H](N(C)C)[C@H]2O)[C@](C)(OC)C[C@@H](C)NC(=O)[C@H](C)[C@@H](O)[C@]1(C)O,< 0.13,,,< 0.13,< 0.13,,4,< 0.13,< 0.13,0.5,0.25,< 0.13
NCCNc1cc2c(cc1F)c(=O)c(C(=O)O)cn2C1CC1,> 64,,,> 64,> 64,,> 64,> 64,> 64,> 64,> 64,> 64
CC[C@H]1OC(=O)[C@H](C)[C@@H](O[C@H]2C[C@@](C)(OC)[C@@H](O)[C@H](C)O2)[C@H](C)[C@@H](O[C@@H]2O[C@H](C)C[C@H](N(C)C)[C@H]2O)[C@](C)(O)C[C@@H](C)NC(=O)[C@H](C)[C@@H](O)[C@]1(C)O,1,< 0.13,< 0.13,32,16,> 64,2,> 64,> 64,32,> 64,> 64
CC[C@H]1OC(=O)[C@H](C)[C@@H](O[C@H]2C[C@@](C)(OC)[C@@H](O)[C@H](C)O2)[C@H](C)[C@@H](O[C@@H]2O[C@H](C)C[C@H](N(C)C)[C@H]2O)[C@](C)(OC)C[C@@H](C)NC(=O)[C@H](C)[C@@H](O)[C@]1(C)O,0.5,< 0.13,< 0.13,16,8,> 64,4,> 64,> 64,32,> 64,> 64
CC[C@H]1OC(=O)[C@H](C)[C@@H](O[C@H]2C[C@@](C)(OC)[C@@H](O)[C@H](C)O2)[C@H](C)[C@@H](O[C@@H]2O[C@H](C)C[C@H](N(C)C)[C@H]2O)[C@](C)(O)C[C@@H](C)CN(C)[C@H](C)[C@@H](O)[C@]1(C)O [AZITHROMYCIN],0.5,< 0.13,< 0.13,8,16,> 64,1,> 64,> 64,8,> 64,> 64
CC[C@H]1OC(=O)[C@H](C)C(=O)[C@H](C)[C@@H](O[C@@H]2O[C@H](C)C[C@H](N(C)C)[C@H]2O)[C@](C)(OC)C[C@@H](C)C(=O)[C@H](C)[C@H]2N(CCCCn3cnc(-c4cccnc4)c3)C(=O)O[C@]12C [TELITHROMYCIN],< 0.06,,,0.25,0.06,,2,0.25,0.25,0.5,16,0.125
